Results taken from patent US20230365563A1, “QUINAZOLINE COMPOUND AND APPLICATION THEREOF” (SHANGHAI PHARMACEUTICALS HOLDING CO., LTD., priority 2020, published 2023).
Structures can show the parent of a compound that is named as a salt.

Tests used:
[1] = molecular target: T1, KRAS_G12D and cRAF (Homo sapiens, UniProt P01116, G12D); assay: Inhibition of KRAS_G12D/cRAF binding (Cisbio binding kit, 665/615 ratio), Effect Embodiment B; details: read-out: GTP-KRAS-G12D:CRAF IC50
T1 construct: purchased
T1 sequence (P01116 1-188 isoform P01116-2 G12D): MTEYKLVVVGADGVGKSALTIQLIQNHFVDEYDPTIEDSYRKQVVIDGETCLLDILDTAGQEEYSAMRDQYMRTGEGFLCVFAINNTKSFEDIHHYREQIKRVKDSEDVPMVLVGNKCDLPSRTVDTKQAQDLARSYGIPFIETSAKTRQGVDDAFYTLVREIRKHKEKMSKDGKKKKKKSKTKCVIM
Procedure: (§1) Similarly, the first dilution point of the compound to be tested was its storage solution, and the solution was 3-fold diluted, with 11+0 points of dilution. Echo was used to transfer 0.2 μL gradient diluted solution of the compounds into a 384-well plate, with 2 duplicated wells for each compound, and the final concentration of DMSO was 1%. The solution was centrifuged for 1 min at 1000 rpm/min.
(§2) IC50 of the compounds was fitted by Graphpad Prism 8 nonlinear regression equation: […]
(§3) The IC50 (half inhibitory concentration) of the compound was obtained by using the following nonlinear fitting formula: […]

[2] = molecular target: T2, KRAS_WT and SOS1 (Homo sapiens, UniProt P01116); assay: Inhibition of KRAS_WT/SOS1 binding (Cisbio binding kit, 665/615 ratio), Effect Embodiment C; details: read-out: GTP-KRAS-WT:SOS1 IC50
T2 construct: purchased
T2 sequence (P01116 1-188 isoform P01116-2): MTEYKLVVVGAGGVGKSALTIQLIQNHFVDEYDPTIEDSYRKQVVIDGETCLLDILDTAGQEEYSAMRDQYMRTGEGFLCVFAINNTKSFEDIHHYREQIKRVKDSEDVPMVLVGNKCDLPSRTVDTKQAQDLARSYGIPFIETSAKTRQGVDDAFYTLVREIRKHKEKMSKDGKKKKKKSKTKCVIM
Procedure: The inhibitory ability of small molecule compounds on the binding activity of KRAS_WT and SOS1 was examined by a drug screening system based on the combination of KRAS_WT and SOS1.
as §1, §2, §3

[3] = molecular target: T3, KRAS-G12D and SOS1 (Homo sapiens, UniProt P01116, G12D); assay: Inhibition of KRAS-G12D/SOS1 binding (Cisbio binding kit, 665/615 ratio), Effect Embodiment A; details: read-out: GTP-KRAS-G12D:SOS1 IC50
T3 construct: purchased
T3 sequence (P01116 1-188 isoform P01116-2 G12D): as the sequence (P01116 1-188 isoform P01116-2 G12D) above
Summary of the method: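 Compounds are tested over eleven threefold dilution steps in duplicate, with final DMSO at 1%.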

| Compound | IC50 [1] | IC50 [2] | IC50 [3] |
| --- | --- | --- | --- |
| CN(C)C1CN(c2nc(N3CC4(CNC4)C3)c3cc(Cl)c(-c4cc(O)cc5ccccc45)c(F)c3n2)C1 (single isomer, unassigned) [Compound 7a, (R or S)-4-(6-chloro-2-(3-(dimethylamino)azetidin-1-yl)-8-fluoro-4-(2,6-diazaspiro[3.3]heptan-2-yl)quinazolin-7-yl)naphthalen-2-ol] | 3330 nM | 15900 nM | 278 nM |
| CN(C)C1CN(c2nc(N3CC4(CCNC4)C3)c3cc(Cl)c(-c4cc(O)cc5ccccc45)c(F)c3n2)C1 (single isomer, unassigned) [Compound 8a, (R or S)-4-(6-chloro-2-(3-(dimethylamino)azetidin-1-yl)-8-fluoro-4-(2,6-diazaspiro[3.4]octan-2-yl)quinazolin-7-yl)naphthalen-2-ol] | 1170 nM | 5340 nM | 461 nM |
| CN(C)C1CN(c2nc(N3CC4(CCNCC4)C3)c3cc(Cl)c(-c4cc(O)cc5ccccc45)c(F)c3n2)C1 (single isomer, unassigned) [Compound 10a, (R or S)-4-(6-chloro-2-(3-(dimethylamino)azetidin-1-yl)-8-fluoro-4-(2,7-diazaspiro[3.5]nonan-2-yl)quinazolin-7-yl)naphthalen-2-ol] | 3230 nM | 10300 nM | 780 nM |
| CN(C)C1CN(c2nc(N3CCNCC34CC4)c3cc(Cl)c(-c4cc(O)cc5ccccc45)c(F)c3n2)C1 (single isomer, unassigned) [Compound 19a, (R or S)-4-(6-chloro-2-(3-(dimethylamino)azetidin-1-yl)-8-fluoro-4-(4,7-diazaspiro[2.5]octan-4-yl)quinazolin-7-yl)naphthalen-2-ol] | 1630 nM | 9420 nM | 898 nM |
| CN(C)C1CN(c2nc(N3CCCNCC3)c3cc(Cl)c(-c4cc(O)cc5ccccc45)c(F)c3n2)C1 (single isomer, unassigned) [Compound 23, (S or R)-4-(6-chloro-4-(1,4-diaza-1-yl)-2-(3-(dimethylamino)azetidin-1-yl)-8-fluoroquinazolin-7-yl)naphthalen-2-ol] | 22600 nM | 12400 nM | 947 nM |
| CN(C)C1CN(c2nc(N3CC4CC(C3)N4)c3cc(Cl)c(-c4cc(O)cc5ccccc45)c(F)c3n2)C1 (single isomer, unassigned) [Compound 25, 4-((7S or 7R)-4-(3,6-diazabicyclo[3.1.1]heptan-3-yl)-6-chloro-2-(3-(dimethylamino)azetidin-1-yl)-8-fluoroquinazolin-7-yl)naphthalen-2-ol] | 4380 nM | 2550 nM | 294 nM |
| CN(C)C1CN(c2nc(N3CCNC4CC43)c3cc(Cl)c(-c4cc(O)cc5ccccc45)c(F)c3n2)C1 (single isomer, unassigned) [Compound 28, 4-((S or R)-4-((1R,6S or 1S,6R)-2,5-diazabicyclo[4.1.0]heptan-2-yl)-6-chloro-2-(3-(dimethylamino)azetidin-1-yl)-8-fluoroquinazolin-7-yl)naphthalen-2-ol trifluoroacetate] | 4700 nM | 22500 nM | 312 nM |
| CN(C)C1CN(c2nc(N3CC4CCCC3CN4)c3cc(Cl)c(-c4cc(O)cc5ccccc45)c(F)c3n2)C1 (single isomer, unassigned) [Compound 37, 4-((S or R)-4-((1S,5S or 1R,5R)-6,8-diazabicyclo[3.2.2]nonan-6-yl)-6-chloro-2-(3-(dimethylamino)azetidin-1-yl)-8-fluoroquinazolin-7-yl)naphthalen-2-ol] | 2140 nM | 1010 nM | 629 nM |
| CN1CCC[C@H]1COc1nc(N2CC3CCC(C2)N3)c2cc(Cl)c(-c3cc(O)cc4ccccc34)c(F)c2n1 (single isomer, unassigned) [Compound 39a, (S or R)-4-(4-((1R,5S)-3,8-diazabicyclo[3.2.1]octan-3-yl)-6-chloro-8-fluoro-2-((S)-1-methylpyrrolidin-2-yl)methoxy)quinazolin-7-yl)naphthalen-2-ol] | 26.2 nM | 342 nM | 27.7 nM |
| CN1CCN(c2nc(N3CC4CCC(C3)N4)c3cc(Cl)c(-c4cc(O)cc5ccccc45)c(F)c3n2)CC1 (single isomer, unassigned) [Compound 52a, 4-((S or R)-4-((1R,5S)-3,8-diazabicyclo[3.2.1]octan-3-yl)-6-chloro-8-fluoro-2-(4-methylpiperazin-1-yl)quinazolin-7-yl)naphthalen-2-ol] | 9210 nM | 28900 nM | 1140 nM |
| CN(C)CCCNc1nc(N2C[C@H]3CC[C@@H](C2)N3)c2cc(Cl)c(-c3cc(O)cc4ccccc34)c(F)c2n1 (single isomer, unassigned) [Compound 55a, (S or R) 4-(4-((1R,5S)-3,8-diazabicyclo[3.2.1]octan-3-yl)-6-chloro-2-((3-(dimethylamino)propyl)amino)-8-fluoroquinazolin-7-yl)naphthalen-2-ol] | 9950 nM | > 100000 nM | 1120 nM |

The remaining lines, values ahead:

| IC50 [1] | IC50 [2] | IC50 [3] | Compound |
| --- | --- | --- | --- |
| 66 nM | 293 nM | 66.4 nM | CN(C)C1CN(c2nc(N3[C@@H]4CC[C@H]3CNC4)c3cc(Cl)c(-c4cc(O)cc5ccccc45)c(F)c3n2)C1 (single isomer, unassigned) [Compound 6a, (R or S)-4-(4-((1R,5S)-3,8-diazabicyclo [3.2.1]octan-8-yl)-6-chloro-2-(3-(dimethylamino)azetidin-1-yl)-8-fluoro-quinazolin-7-yl)naphthalen-2-ol] |
| 104 nM | 1040 nM | 15.2 nM | CN(C)CCCOc1nc(N2C[C@H]3CC[C@@H](C2)N3)c2cc(Cl)c(-c3cc(O)cc4ccccc34)c(F)c2n1 (single isomer, unassigned) [Compound 40a, (S or R)-4-(4-((1R,5S)-3,8-diazabicyclo[3.2.1]octan-3-yl)-6-chloro-2-(3-(dimethylamino)propoxy)-8-fluoroquinazolin-7-yl)naphthalen-2-ol] |
| 824 nM | 5700 nM | 208 nM | Cc1cccc2cc(O)cc(-c3c(Cl)cc4c(N5CC6CCC(C5)N6)nc(N5CC(N(C)C)C5)nc4c3F)c12 (single isomer, unassigned) [Compound 47a, 4-((S or R)-4-((1R,5S)-3,8-diazabicyclo[3.2.1]octan-3-yl)-6-chloro-2-(3-(dimethylamino)azetidin-1-yl)-8-fluoroquinazolin-7-yl)-5-methylnaphthalen-2-ol] |
| 130 nM | 6020 nM | 23.8 nM | CN(C)CCOc1nc(N2CC3CCC(C2)N3)c2cc(Cl)c(-c3cc(O)cc4ccccc34)c(F)c2n1 (single isomer, unassigned) [Compound 48a, 4-((S or R)-4-((1R,5S)-3,8-diazabicyclo[3.2.1]octan-3-yl)-6-chloro-2-(2-(dimethylamino)ethoxy)-8-fluoroquinazolin-7-yl)naphthalen-2-ol] |
| 159 nM | 1710 nM | 36.2 nM | CCN(C)CCCOc1nc(N2CC3CCC(C2)N3)c2cc(Cl)c(-c3cc(O)cc4ccccc34)c(F)c2n1 (single isomer, unassigned) [Compound 49a] |
| 155 nM | 1690 nM | 44.3 nM | CC(C)N(C)CCCOc1nc(N2CC3CCC(C2)N3)c2cc(Cl)c(-c3cc(O)cc4ccccc34)c(F)c2n1 (single isomer, unassigned) [Compound 50a, 4-((S or R)-4-((1R,5S)-3,8-diazabicyclo[3.2.1]octan-3-yl)-6-chloro-8-fluoro-2-(3-(isopropyl(methyl)amino)propoxy)quinazolin-7-yl)naphthalen-2-ol trifluoroacetate] |
| 144 nM | 1420 nM | 30.8 nM | CCCN(C)CCCOc1nc(N2CC3CCC(C2)N3)c2cc(Cl)c(-c3cc(O)cc4ccccc34)c(F)c2n1 (single isomer, unassigned) [Compound 51a, 4-((S or R)-4-((1R,5S)-3,8-diazabicyclo[3.2.1]octan-3-yl)-6-chloro-8-fluoro-2-(3-(methyl(propyl)amino)propoxy)quinazolin-7-yl)naphthalen-2-ol carboxylate] |
| 147 nM | 2170 nM | 59.7 nM | CCN(CC)CCCOc1nc(N2CC3CCC(C2)N3)c2cc(Cl)c(-c3cc(O)cc4ccccc34)c(F)c2n1 (single isomer, unassigned) [Compound 53a, 4-((S or R)-4-((1R,5S)-3,8-diazabicyclo[3.2.1]octan-3-yl)-6-chloro-2-(3-(diethylamino)propoxy)-8-fluoroquinazolin-7-yl)naphthalen-2-ol] |
| 103 nM | 1190 nM | 26.2 nM | Oc1cc(-c2c(Cl)cc3c(N4CC5CCC(C4)N5)nc(OCCCN4CCOCC4)nc3c2F)c2ccccc2c1 (single isomer, unassigned) [Compound 54a, 4-((S or R)-4-((1R,5S)-3,8-diazabicyclo[3.2.1]octan-3-yl)-6-chloro-8-fluoro-2-(3-morpholinopropoxy)quinazolin-7-yl)naphthalen-2-ol] |
| 461 nM | 14000 nM | 64.1 nM | CN1CCCC[C@H]1COc1nc(N2CC3CCC(C2)N3)c2cc(Cl)c(-c3cc(O)cc4ccccc34)c(F)c2n1 (single isomer, unassigned) [Compound 56a, 4-((S or R)-4-((1R,5S)-3,8-diazabicyclo[3.2.1]octan-3-yl)-6-chloro-8-fluoro-2-((S)-1-methylpiperidin-2-yl)methoxy)quinazolin-7-yl)naphthalen-2-ol dihydrochloride] |
